Experimental data as given in ChEMBL document CHEMBL1201862, “PubChem BioAssay data set” (2004).
The source made the active and inactive calls.

Tests used:
Beta-galactosidase = Beta-galactosidase (Escherichia coli, UniProt Q8VNN2); assay: Dose response counterscreen for EBI2 assay utilizing the enzyme, b-galactosidase.; type: functional
[1] = target: T1, Alkaline phosphatase, tissue-nonspecific isozyme (Homo sapiens, UniProt P05186); assay: TNAP enzyme inhibition by screening hits, dose response, selectivity assay for mouse IAP inhibitor project, biochemical, human TNAP, uHTS hits (AID 488906); type: functional
T1 sequence (P05186 whole entry): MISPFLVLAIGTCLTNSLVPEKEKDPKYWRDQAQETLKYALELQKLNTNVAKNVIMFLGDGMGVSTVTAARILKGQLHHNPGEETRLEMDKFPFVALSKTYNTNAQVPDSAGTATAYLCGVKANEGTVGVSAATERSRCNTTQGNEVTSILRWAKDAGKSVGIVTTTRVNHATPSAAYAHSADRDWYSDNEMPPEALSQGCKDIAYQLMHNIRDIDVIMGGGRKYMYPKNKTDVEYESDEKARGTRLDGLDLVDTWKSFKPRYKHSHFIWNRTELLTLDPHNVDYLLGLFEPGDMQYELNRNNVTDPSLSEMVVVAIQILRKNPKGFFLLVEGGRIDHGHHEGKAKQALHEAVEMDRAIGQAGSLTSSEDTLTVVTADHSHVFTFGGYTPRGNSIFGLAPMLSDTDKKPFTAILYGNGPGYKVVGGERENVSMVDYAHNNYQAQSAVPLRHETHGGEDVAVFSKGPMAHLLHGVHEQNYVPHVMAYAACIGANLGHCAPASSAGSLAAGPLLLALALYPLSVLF

Large T antigen = Large T antigen (Simian virus 40, UniProt P03070); type: functional, Betapolyomavirus macacae;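 further: Confirmatory-stage PubChem screen for compounds that inhibit SV40 T antigen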
Large T antigen, sequence (P03070 whole entry): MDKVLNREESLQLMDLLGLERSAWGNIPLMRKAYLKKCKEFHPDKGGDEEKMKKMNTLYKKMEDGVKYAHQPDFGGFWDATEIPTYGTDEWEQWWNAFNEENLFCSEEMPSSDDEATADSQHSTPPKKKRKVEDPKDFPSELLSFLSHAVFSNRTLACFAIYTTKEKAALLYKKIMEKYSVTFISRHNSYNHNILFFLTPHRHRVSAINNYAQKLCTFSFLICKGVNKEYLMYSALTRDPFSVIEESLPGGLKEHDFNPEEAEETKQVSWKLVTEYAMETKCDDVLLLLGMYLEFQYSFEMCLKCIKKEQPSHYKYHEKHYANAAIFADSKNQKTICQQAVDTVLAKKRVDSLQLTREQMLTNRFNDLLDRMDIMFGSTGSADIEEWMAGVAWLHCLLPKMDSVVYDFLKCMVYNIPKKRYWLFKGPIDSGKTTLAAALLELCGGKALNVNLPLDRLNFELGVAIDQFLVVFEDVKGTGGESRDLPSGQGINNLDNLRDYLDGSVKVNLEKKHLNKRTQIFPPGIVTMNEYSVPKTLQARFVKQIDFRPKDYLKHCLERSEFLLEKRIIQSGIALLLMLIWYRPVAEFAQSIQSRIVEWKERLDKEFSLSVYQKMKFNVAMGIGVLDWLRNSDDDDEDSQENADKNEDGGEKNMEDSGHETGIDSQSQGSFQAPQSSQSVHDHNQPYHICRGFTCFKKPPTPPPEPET

Caspase-6 = target: T2, Caspase-6 (Homo sapiens, UniProt P55212); assay: inhibition of CASP6 peptide cleavage – biochemical, VEID-R110 fluorescence, cherry-pick, dose response (AID 720632)
T2 sequence (P55212 whole entry): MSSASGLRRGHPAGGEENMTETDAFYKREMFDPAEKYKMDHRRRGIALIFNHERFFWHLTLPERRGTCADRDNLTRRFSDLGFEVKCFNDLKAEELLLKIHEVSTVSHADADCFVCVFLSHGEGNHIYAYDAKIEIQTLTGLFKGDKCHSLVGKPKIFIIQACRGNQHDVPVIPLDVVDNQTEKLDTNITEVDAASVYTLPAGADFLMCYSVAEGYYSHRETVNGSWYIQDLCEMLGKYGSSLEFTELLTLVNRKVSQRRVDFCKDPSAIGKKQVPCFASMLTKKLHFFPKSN

[2] = reduction of Shn3 3'UTR-driven luciferase in osteoblasts – cell-based, Clone20 osteoblasts, firefly luciferase, cherry-picked, dose response (AID 624132); type: functional;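 further: firefly luciferase luminescence from reporter carrying the Shn3 3'UTR in osteoblasts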
Vero = assay: viability of Vero cells under compound – cytotoxicity control for flavivirus capping enzyme inhibitors (AID 588742); type: functional; details: Chlorocebus sabaeus
[3] = target: Histone-lysine N-methyltransferase NSD2 (Homo sapiens, UniProt O96028); type: biochemical
Histone-lysine N-methyltransferase NSD2, sequence (O96028 whole entry): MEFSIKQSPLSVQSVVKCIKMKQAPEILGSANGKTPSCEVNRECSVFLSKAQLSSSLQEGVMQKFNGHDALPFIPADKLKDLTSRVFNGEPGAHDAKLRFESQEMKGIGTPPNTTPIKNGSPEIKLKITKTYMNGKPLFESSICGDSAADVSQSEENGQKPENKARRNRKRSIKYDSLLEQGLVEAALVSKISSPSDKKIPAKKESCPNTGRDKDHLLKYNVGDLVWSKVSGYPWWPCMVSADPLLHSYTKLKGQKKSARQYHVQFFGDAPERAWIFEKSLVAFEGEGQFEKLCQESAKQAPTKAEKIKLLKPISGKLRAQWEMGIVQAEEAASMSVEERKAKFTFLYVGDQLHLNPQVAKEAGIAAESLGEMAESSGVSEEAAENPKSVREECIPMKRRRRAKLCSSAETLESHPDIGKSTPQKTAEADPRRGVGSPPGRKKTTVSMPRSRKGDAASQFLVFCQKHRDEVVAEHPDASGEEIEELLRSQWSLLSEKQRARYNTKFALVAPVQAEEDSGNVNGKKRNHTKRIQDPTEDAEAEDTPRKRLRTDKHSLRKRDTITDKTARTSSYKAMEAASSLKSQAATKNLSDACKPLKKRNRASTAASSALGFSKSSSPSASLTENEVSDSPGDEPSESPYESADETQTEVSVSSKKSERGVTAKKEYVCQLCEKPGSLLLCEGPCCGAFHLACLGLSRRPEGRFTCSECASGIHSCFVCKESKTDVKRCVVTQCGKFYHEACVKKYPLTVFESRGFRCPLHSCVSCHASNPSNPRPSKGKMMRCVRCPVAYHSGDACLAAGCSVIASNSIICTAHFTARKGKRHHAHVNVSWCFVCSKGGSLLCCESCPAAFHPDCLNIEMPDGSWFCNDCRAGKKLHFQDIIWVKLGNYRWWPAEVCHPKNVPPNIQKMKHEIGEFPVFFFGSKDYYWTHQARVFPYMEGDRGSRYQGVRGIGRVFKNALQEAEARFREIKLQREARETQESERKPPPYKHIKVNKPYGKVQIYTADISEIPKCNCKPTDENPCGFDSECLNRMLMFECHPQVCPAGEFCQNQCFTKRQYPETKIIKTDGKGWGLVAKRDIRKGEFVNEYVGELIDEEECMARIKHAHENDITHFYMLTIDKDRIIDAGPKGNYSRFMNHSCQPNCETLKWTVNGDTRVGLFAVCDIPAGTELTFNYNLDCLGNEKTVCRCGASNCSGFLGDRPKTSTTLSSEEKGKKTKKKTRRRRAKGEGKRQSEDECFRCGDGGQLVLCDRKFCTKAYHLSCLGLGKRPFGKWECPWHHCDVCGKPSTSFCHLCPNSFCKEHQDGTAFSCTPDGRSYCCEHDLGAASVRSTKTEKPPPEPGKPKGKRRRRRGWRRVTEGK

[4] = target: Intestinal-type alkaline phosphatase (Homo sapiens, UniProt P09923); assay: inhibition of human intestinal alkaline phosphatase – biochemical, dose response (AID 488876); type: functional
Intestinal-type alkaline phosphatase (Homo sapiens, UniProt P09923), sequence (P09923 whole entry): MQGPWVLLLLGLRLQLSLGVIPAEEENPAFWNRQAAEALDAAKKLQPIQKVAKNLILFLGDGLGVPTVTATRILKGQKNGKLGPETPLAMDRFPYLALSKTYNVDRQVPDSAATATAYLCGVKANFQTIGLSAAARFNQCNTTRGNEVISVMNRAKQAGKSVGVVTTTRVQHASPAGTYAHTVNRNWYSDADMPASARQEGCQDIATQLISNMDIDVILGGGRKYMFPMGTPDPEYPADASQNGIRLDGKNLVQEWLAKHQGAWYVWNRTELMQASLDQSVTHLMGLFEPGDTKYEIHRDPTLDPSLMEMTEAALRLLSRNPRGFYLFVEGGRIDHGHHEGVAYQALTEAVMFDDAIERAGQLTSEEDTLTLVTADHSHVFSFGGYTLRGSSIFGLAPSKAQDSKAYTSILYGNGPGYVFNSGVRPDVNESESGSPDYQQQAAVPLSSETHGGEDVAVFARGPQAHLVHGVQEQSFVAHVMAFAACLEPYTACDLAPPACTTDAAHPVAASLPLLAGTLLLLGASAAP

[5] = target: Intestinal-type alkaline phosphatase (Mus musculus, UniProt P24822); assay: PubChem AID 488785; type: functional
Intestinal-type alkaline phosphatase (Mus musculus, UniProt P24822), sequence (P24822 whole entry): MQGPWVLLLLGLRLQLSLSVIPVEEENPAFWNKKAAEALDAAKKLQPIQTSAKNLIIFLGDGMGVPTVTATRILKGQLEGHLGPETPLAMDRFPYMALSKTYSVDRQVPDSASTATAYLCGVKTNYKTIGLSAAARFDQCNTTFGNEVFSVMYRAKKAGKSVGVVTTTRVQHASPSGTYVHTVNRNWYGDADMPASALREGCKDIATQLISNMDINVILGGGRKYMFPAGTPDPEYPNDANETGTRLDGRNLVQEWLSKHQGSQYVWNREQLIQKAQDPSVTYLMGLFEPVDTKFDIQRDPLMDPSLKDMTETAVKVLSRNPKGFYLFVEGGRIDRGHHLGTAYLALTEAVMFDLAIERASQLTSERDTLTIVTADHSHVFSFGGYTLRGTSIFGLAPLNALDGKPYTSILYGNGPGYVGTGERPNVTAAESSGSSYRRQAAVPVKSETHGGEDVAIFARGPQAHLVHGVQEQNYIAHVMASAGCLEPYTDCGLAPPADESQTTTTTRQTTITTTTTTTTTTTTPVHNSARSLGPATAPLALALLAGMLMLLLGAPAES

[6] = non-specific 3'UTR reporter inhibition in Clone20-Shn3RL – cell-based, Renilla luciferase, cherry-picked, counter-screen for Shn3 inhibitor project, dose response (AID 624133); type: functional
Genome polyprotein = Genome polyprotein (dengue virus type 2, UniProt P29990); assay: flavivirus cap methylation enzyme inhibition – biochemical, confirmation dose response, primary screen (AID 588689); type: functional
Genome polyprotein, sequence (P29990 2492-3391 limits assumed): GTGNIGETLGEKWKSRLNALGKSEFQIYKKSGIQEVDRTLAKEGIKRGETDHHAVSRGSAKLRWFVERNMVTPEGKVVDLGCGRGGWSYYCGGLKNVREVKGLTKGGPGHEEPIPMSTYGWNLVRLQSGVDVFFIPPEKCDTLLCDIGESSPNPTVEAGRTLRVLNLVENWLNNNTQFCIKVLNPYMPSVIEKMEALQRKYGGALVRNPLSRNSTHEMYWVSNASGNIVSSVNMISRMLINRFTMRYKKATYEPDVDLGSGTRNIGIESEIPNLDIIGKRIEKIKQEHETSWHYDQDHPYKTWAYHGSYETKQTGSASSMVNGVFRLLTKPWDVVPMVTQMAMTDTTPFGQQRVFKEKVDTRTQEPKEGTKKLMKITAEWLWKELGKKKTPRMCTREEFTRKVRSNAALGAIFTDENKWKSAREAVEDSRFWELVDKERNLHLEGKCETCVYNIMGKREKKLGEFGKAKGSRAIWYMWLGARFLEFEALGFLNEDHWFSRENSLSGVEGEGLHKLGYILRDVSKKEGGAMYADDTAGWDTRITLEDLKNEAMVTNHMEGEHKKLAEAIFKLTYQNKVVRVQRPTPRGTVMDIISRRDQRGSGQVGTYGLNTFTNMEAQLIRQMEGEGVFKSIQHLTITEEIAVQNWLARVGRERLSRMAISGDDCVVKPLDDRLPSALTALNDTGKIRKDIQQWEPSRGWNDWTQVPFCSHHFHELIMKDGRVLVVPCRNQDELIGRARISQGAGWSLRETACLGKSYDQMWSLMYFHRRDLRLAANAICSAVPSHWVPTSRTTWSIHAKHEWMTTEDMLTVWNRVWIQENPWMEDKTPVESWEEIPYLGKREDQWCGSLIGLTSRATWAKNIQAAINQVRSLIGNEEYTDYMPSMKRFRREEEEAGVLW

[7] = DRD fibroblast viability loss – cell-based, non-viral oncogenic, luminescence, dose response (AID 1934); type: functional; details: Homo sapiens
[8] = target: Luciferin 4-monooxygenase (Photinus pyralis, UniProt P08659); assay: inhibition of purified Photinus pyralis luciferase – biochemical, luminescence, dose response (AID 1891)
BJ [9] = assay: cells; type: functional, cell-based; details: Homo sapiens
BJ [10] = assay: BJ-TERT fibroblast viability loss – cell-based, RAS-independent, luminescence, dose response (AID 1933); type: functional; details: Homo sapiens
[11] = target: T3, Sentrin-specific protease 8 (Homo sapiens, UniProt Q96LD8); type: functional
T3 sequence (Q96LD8 whole entry): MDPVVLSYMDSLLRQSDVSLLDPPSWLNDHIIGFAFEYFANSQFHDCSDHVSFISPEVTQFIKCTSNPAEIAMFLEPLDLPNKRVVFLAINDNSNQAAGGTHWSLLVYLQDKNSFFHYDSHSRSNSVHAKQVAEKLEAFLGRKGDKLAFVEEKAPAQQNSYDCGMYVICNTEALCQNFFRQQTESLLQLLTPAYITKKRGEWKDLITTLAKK

[12] = target: Glucose-6-phosphate 1-dehydrogenase (Homo sapiens, UniProt P11413); assay: inhibition of Homo sapiens G6PD, dose series – biochemical, fluorescence, selectivity assay for P. falciparum G6PD inhibitor project, dose response (AID 504792); type: functional
Glucose-6-phosphate 1-dehydrogenase, sequence (P11413 whole entry): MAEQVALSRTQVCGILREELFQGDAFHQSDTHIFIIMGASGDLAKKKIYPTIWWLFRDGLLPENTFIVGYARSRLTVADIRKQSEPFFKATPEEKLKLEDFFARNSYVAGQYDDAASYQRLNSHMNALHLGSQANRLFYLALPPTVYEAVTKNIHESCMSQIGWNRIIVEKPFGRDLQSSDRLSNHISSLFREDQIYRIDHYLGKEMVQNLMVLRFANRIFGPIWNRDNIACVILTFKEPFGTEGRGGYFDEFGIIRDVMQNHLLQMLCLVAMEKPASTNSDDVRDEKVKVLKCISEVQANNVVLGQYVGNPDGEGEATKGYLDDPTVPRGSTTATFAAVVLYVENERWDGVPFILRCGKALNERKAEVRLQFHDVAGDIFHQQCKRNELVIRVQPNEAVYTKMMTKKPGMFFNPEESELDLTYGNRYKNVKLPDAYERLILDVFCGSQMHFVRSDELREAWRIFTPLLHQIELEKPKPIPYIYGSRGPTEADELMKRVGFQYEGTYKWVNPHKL

[13] = Luminescence Cell-Based Dose Confirmation HTS to Identify Inhibitors of Platelet Dense Granule Release. [Related pubchem assays: 1663 (Primary HTS), 1678 (Summary of Project)]; type: functional
[14] = target: T3, Sentrin-specific protease 8; type: functional; remark: listed apart in the source
BJ [15] = assay: BJ-TERT-LT-ST fibroblast viability loss – cell-based, RAS-independent, luminescence, dose response (AID 1935); type: functional; details: Homo sapiens;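 further: BJ fibroblasts immortalized with TERT plus LT and ST oncogenes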
[16] = target: Heat shock protein HSP 90-alpha (Homo sapiens, UniProt P07900); type: functional, organism-based

Question: With `COc1ccc(OCC(=O)N2CCN(c3nnc(-c4ccc(C)cc4)c4ccccc34)CC2)cc1` as the molecule, how does the IC50 (Beta-galactosidase) read?
Answer: Its IC50 is > 80 µM (inactive).

Question: Which IC50 [1] does the source give for `Oc1ccc(-c2csc(Nc3cccc4ccccc34)n2)cc1O` here?
Answer: Its IC50 is 78 µM (active).

Question: And the IC50 (Large T antigen)?
Answer: Its IC50 is 66.2 µM (active).

Question: And the AC50 (Caspase-6)?
Answer: The AC50 was 14.1 µM (active).

Question: And the AC50 [2]?
Answer: Its AC50 is 1.58 µM (active).

Question: What about the CC50 (Vero) of the same molecule?
Answer: Its CC50 is > 40 µM (active).

Question: And the AC50 [3]?
Answer: Its AC50 is 10.5 µM (active).

Question: What about the IC50 [4] of the same molecule?
Answer: Its IC50 is 3.36 µM (active).

Question: What about the IC50 [5] of the same molecule?
Answer: The IC50 was 1.63 µM (active).

Question: What about the AC50 [6] of the same molecule?
Answer: The AC50 was 7.93 µM (active).

Question: And the IC50 (Genome polyprotein)?
Answer: The IC50 was > 100 µM (active).

Question: For `COc1cccc2nc3cc(C)c(C)cc3nc12`, which EC50 [7] is on record?
Answer: The EC50 was 3.01 µM (active).

Question: What about the CC50 (Vero) of the same molecule?
Answer: The CC50 was 11.7 µM (active).

Question: And the EC50 [8]?
Answer: Its EC50 is 0.923 µM (active).

Question: And the EC50 (BJ [9])?
Answer: The EC50 was 3.05 µM (active).

Question: What about the EC50 (BJ [10]) of the same molecule?
Answer: Its EC50 is 3.31 µM (active).

Question: What about the IC50 [11] of the same molecule?
Answer: Its IC50 is 8.2 µM (active).

Question: And the IC50 [12]?
Answer: Its IC50 is 37.1 µM (inactive).

Question: What about the EC50 [13] of the same molecule?
Answer: The EC50 was 7.02 µM (active).

Question: What about the IC50 [14] of the same molecule?
Answer: Its IC50 is 8.48 µM (active).

Question: What about the IC50 (Genome polyprotein) of the same molecule?
Answer: The IC50 was 62.2 µM (active).

Question: And the EC50 (BJ [15])?
Answer: Its EC50 is 12.2 µM (inconclusive).

Question: For `CCOc1ccc(Br)cc1C1=NN(C(C)=O)C(c2ccc([N+](=O)[O-])s2)O1` (stereo not given), which IC50 [11] is on record?
Answer: The IC50 was 9.04 µM (active).

Question: What about the AC50 [16] of the same molecule?
Answer: Its AC50 is 7.83 µM (active).

Question: What about the IC50 [14] of the same molecule?
Answer: Its IC50 is 11 µM (active).
